{
  "source": "patent US12351570B2",
  "about": "(MERCK PATENT GMBH, priority 2018, dated 2025)",
  "test_system": "MDA-MB-231 cells",
  "test": "Extracellular lactate production inhibition after 4 h, MDA-MB-231",
  "conditions": "Homo sapiens, MDA-MB-231",
  "data": [
    {"compound": "Cc1ccc2cccnc2c1S(=O)(=O)Nc1c(F)cccc1C#Cc1ccc(C(=O)O)nc1", "note": "[Compound 106, 5-{2-[3-fluoro-2-(7-methylquinoline-8-sulfonamido)phenyl]ethynyl}pyridine-2-carboxylic acid]", "values": [
      {"measurement": "IC50", "value": "1000 to 100000", "unit": "nM"}
    ]},
    {"compound": "CCOc1ccc(NS(=O)(=O)c2cccc3cccnc23)c(C#Cc2ccc(C(=O)O)nc2)c1", "note": "[Compound 329, 5-[5-Ethoxy-2-(quinoline-8-sulfonylamino)-phenylethynyl]-pyridine-2-carboxylic acid]", "values": [
      {"measurement": "IC50", "value": "100 to 1000", "unit": "nM"}
    ]},
    {"compound": "O=C(O)c1ccc(C#Cc2ccccc2NS(=O)(=O)N2CCCC3CCCCC32)cn1", "note": "(stereo not shown) [Compound 144, 5-(2-{2-[(decahydroquinoline-1-sulfonyl)amino]phenyl}ethynyl)pyridine-2-carboxylic acid]", "values": [
      {"measurement": "IC50", "value": "10 to 100", "unit": "nM"}
    ]},
    {"compound": "COc1cc(C(=O)O)ncc1C#Cc1ccccc1NS(=O)(=O)c1ccc(OC)c(C)c1C", "note": "[Compound 241, 4-methoxy-5-{2-[2-(4-methoxy-2,3-dimethylbenzenesulfonamido)-phenyl]ethynyl}pyridine-2-carboxylic acid]", "values": [
      {"measurement": "IC50", "value": "10 to 100", "unit": "nM"}
    ]},
    {"compound": "COc1cc(C(=O)N(C)C)ncc1C#Cc1cc(Cl)ccc1NS(=O)(=O)c1ccc(OC)c2cccnc12", "note": "[Compound 373, 5-{2-[5-chloro-2-(5-methoxyquinoline-8-sulfonamido)phenyl]ethynyl}-4-methoxy-N,N-dimethylpyridine-2-carboxamide]", "values": [
      {"measurement": "IC50", "value": "1000 to 100000", "unit": "nM"}
    ]},
    {"compound": "CCOc1cc(C#Cc2ccccc2NS(=O)(=O)c2c(C)ccc3cccnc23)cnc1C(=O)O", "note": "[Compound 188, 3-ethoxy-5-{2-[2-(7-methylquinoline-8-sulfonamido)phenyl]ethynyl}pyridine-2-carboxylic acid]", "values": [
      {"measurement": "IC50", "value": "100 to 1000", "unit": "nM"}
    ]},
    {"compound": "O=C(O)c1ccc(C#Cc2ccccc2NS(=O)(=O)c2cccc3nsnc23)cn1", "note": "[Compound 292, 5-{2-[2-(2,1,3-benzothiadiazole-4-sulfonamido)phenyl]ethynyl}pyridine-2-carboxylic acid]", "values": [
      {"measurement": "IC50", "value": "1000 to 100000", "unit": "nM"}
    ]},
    {"compound": "CCc1cc(C#Cc2ccccc2NS(=O)(=O)c2ccc(OC)c3cccnc23)cnc1C(=O)O", "note": "[Compound 451, 3-Ethyl-5-[2-(5-methoxy-quinoline-8-sulfonylamino)-phenylethynyl]-pyridine-2-carboxylic acid]", "values": [
      {"measurement": "IC50", "value": "10 to 100", "unit": "nM"}
    ]},
    {"compound": "COc1ccc(S(=O)(=O)Nc2ccccc2C#Cc2cnc(C(=O)O)c(C)c2)c2ccccc12", "note": "[Compound 63, 5-{2-[2-(4-methoxynaphthalene-1-sulfonamido)phenyl]ethynyl}-3-methylpyridine-2-carboxylic acid]", "values": [
      {"measurement": "IC50", "value": "100 to 1000", "unit": "nM"}
    ]},
    {"compound": "O=C(O)c1ccc(C#Cc2ccccc2NS(=O)(=O)c2ccc3oc4ccccc4c3c2)cn1", "note": "[Compound 286, 5-[2-(2-{8-oxatricyclo[7.4.0.0^2,7]trideca-1(9),2(7),3,5,10,12-hexaene-4-sulfonamido}phenyl)ethynyl]pyridine-2-carboxylic acid]", "values": [
      {"measurement": "IC50", "value": "100 to 1000", "unit": "nM"}
    ]},
    {"compound": "COc1ccc(S(=O)(=O)Nc2ccc(F)cc2C#Cc2ccc(C(=O)O)cc2)c2ccccc12", "note": "[Compound 25, 4-{2-[5-fluoro-2-(4-methoxynaphthalene-1-sulfonamido)phenyl]ethynyl}benzoic acid]", "values": [
      {"measurement": "IC50", "value": "100 to 1000", "unit": "nM"}
    ]},
    {"compound": "O=C(O)c1ccc(C#Cc2ccccc2NS(=O)(=O)N2CCc3ccccc3C2)cc1", "note": "[Compound 90, 4-(2-{2-[(1,2,3,4-tetrahydroisoquinoline-2-sulfonyl)amino]phenyl}ethynyl)benzoic acid]", "values": [
      {"measurement": "IC50", "value": "1000 to 100000", "unit": "nM"}
    ]},
    {"compound": "COc1ccc(S(=O)(=O)Nc2ccccc2C#Cc2cnc(C(=O)O)cc2OC)cc1", "note": "[Compound 391, 4-Methoxy-5-[2-(4-methoxy-benzenesulfonylamino)-phenylethynyl]-pyridine-2-carboxylic acid]", "values": [
      {"measurement": "IC50", "value": "100 to 1000", "unit": "nM"}
    ]},
    {"compound": "COc1cc(C(=O)O)ncc1C#Cc1ccccc1NS(=O)(=O)c1ccc(OC)c2cccnc12", "note": "[Compound 169, 4-methoxy-5-{2-[2-(5-methoxyquinoline-8-sulfonamido)phenyl]ethynyl}pyridine-2-carboxylic acid]", "values": [
      {"measurement": "IC50", "value": "10 to 100", "unit": "nM"}
    ]},
    {"compound": "Cc1ccc(S(=O)(=O)Nc2ccccc2C#Cc2ccc(C(=O)O)nc2)c2ncccc12", "note": "[Compound 374, 5-{2-[2-(5-methylquinoline-8-sulfonamido)phenyl]ethynyl}pyridine-2-carboxylic acid]", "values": [
      {"measurement": "IC50", "value": "100 to 1000", "unit": "nM"}
    ]},
    {"compound": "Cc1ccc(NS(=O)(=O)c2c(C)ccc3cccnc23)c(C#Cc2ccc(C(=O)O)nc2)c1", "note": "[Compound 393, 5-[5-Methyl-2-(7-methyl-quinoline-8-sulfonylamino)-phenylethynyl]-pyridine-2-carboxylic acid]", "values": [
      {"measurement": "IC50", "value": "1 to 10", "unit": "nM"}
    ]},
    {"compound": "Cc1ccc2cc(Cl)cc(S(=O)(=O)Nc3ccccc3C#Cc3ccc(C(=O)O)nc3)c2n1", "note": "[Compound 317, 5-{2-[2-(6-chloro-2-methylquinoline-8-sulfonamido)phenyl]ethynyl}pyridine-2-carboxylic acid]", "values": [
      {"measurement": "IC50", "value": "100 to 1000", "unit": "nM"}
    ]},
    {"compound": "CCNc1ccnc2c(S(=O)(=O)Nc3ccccc3C#Cc3ccc(C(=O)O)nc3)cccc12", "note": "[Compound 426, 5-[2-(4-Ethylamino-quinoline-8-sulfonylamino)-phenylethynyl]-pyridine-2-carboxylic acid]", "values": [
      {"measurement": "IC50", "value": "1000 to 100000", "unit": "nM"}
    ]},
    {"compound": "CNc1ccnc2c(S(=O)(=O)Nc3ccccc3C#Cc3cnc(C(=O)O)cc3C)cccc12", "note": "[Compound 425, 4-Methyl-5-[2-(4-methylamino-quinoline-8-sulfonylamino)-phenylethynyl]-pyridine-2-carboxylic acid]", "values": [
      {"measurement": "IC50", "value": "1000 to 100000", "unit": "nM"}
    ]},
    {"compound": "COc1ccc(S(=O)(=O)Nc2ccccc2C#Cc2ccc(C(=O)O)c(C)c2)c2ccccc12", "note": "[Compound 18, 4-{2-[2-(4-methoxynaphthalene-1-sulfonamido)phenyl]ethynyl}-2-methylbenzoic acid]", "values": [
      {"measurement": "IC50", "value": "100 to 1000", "unit": "nM"}
    ]},
    {"compound": "COc1cc(C(=O)O)ncc1C#Cc1ccccc1NS(=O)(=O)c1c(C)cc(OC)c2cccnc12", "note": "[Compound 372, 4-Methoxy-5-[2-(5-methoxy-7-methyl-quinoline-8-sulfonylamino)-phenylethynyl]-pyridine-2-carboxylic acid]", "values": [
      {"measurement": "IC50", "value": "1 to 10", "unit": "nM"}
    ]},
    {"compound": "O=C(O)c1ccc(C#Cc2cc(F)ccc2NS(=O)(=O)c2cccc3cccnc23)cn1", "note": "[Compound 111, 5-{2-[5-fluoro-2-(quinoline-8-sulfonamido)phenyl]ethynyl}pyridine-2-carboxylic acid]", "values": [
      {"measurement": "IC50", "value": "100 to 1000", "unit": "nM"}
    ]},
    {"compound": "Cn1ccc2cccc(S(=O)(=O)Nc3ccccc3C#Cc3ccc(C(=O)O)nc3)c21", "note": "[Compound 296, 5-{2-[2-(1-methyl-1H-indole-7-sulfonamido)phenyl]ethynyl}pyridine-2-carboxylic acid]", "values": [
      {"measurement": "IC50", "value": "1000 to 100000", "unit": "nM"}
    ]},
    {"compound": "CCCOC(=O)c1ccc(C#Cc2ccccc2NS(=O)(=O)c2ccc(OC)c3cccnc23)cn1", "note": "[Compound 166, propyl 5-{2-[2-(5-methoxyquinoline-8-sulfonamido)phenyl]ethynyl}pyridine-2-carboxylate]", "values": [
      {"measurement": "IC50", "value": "10 to 100", "unit": "nM"}
    ]},
    {"compound": "Cc1cc(C(=O)O)ncc1C#Cc1ccccc1NS(=O)(=O)c1cccc2c(N(C)C)ccnc12", "note": "[Compound 421, 5-[2-(4-Dimethylamino-quinoline-8-sulfonylamino)-phenylethynyl]-4-methyl-pyridine-2-carboxylic acid]", "values": [
      {"measurement": "IC50", "value": "100 to 1000", "unit": "nM"}
    ]},
    {"compound": "CC(=O)N(Cc1ccccc1C#Cc1ccc(C(=O)O)nc1)c1cccc2ccccc12", "note": "[Compound 161, 5-[2-(2-{[N-(naphthalen-1-yl)acetamido]-methyl}phenyl)ethynyl]pyridine-2-carboxylic acid]", "values": [
      {"measurement": "IC50", "value": "100 to 1000", "unit": "nM"}
    ]},
    {"compound": "COCCOCCOc1ccnc2c(S(=O)(=O)Nc3ccccc3C#Cc3ccc(C(=O)O)nc3)cccc12", "note": "[Compound 330, 5-[2-(2-{4-[2-(2-methoxyethoxy)-ethoxy]quinoline-8-sulfonamido}-phenyl)ethynyl]pyridine-2-carboxylic acid]", "values": [
      {"measurement": "IC50", "value": "1000 to 100000", "unit": "nM"}
    ]},
    {"compound": "CCc1ccc2cccnc2c1S(=O)(=O)Nc1ccccc1C#Cc1cnc(C(=O)O)c2ccccc12", "note": "[Compound 445, 4-{2-[2-(7-ethylquinoline-8-sulfonamido)phenyl]ethynyl}iso-quinoline-1-carboxylic acid]", "values": [
      {"measurement": "IC50", "value": "1000 to 100000", "unit": "nM"}
    ]},
    {"compound": "COc1cc(C(=O)O)ncc1C#Cc1cc(Cl)ccc1NS(=O)(=O)c1c(C)ccc2cccnc12", "note": "[Compound 361, 5-{2-[5-chloro-2-(7-methylquinoline-8-sulfonamido)phenyl]ethynyl}-4-methoxypyridine-2-carboxylic acid]", "values": [
      {"measurement": "IC50", "value": "1 to 10", "unit": "nM"}
    ]},
    {"compound": "COCC(=O)Nc1ccc(C#Cc2ccc(C(=O)O)nc2)c(NS(=O)(=O)c2ccc(OC)c3cccnc23)c1", "note": "[Compound 173, 5-{2-[4-(2-methoxyacetamido)-2-(5-methoxyquinoline-8-sulfonamido)phenyl]ethynyl}pyridine-2-carboxylic acid]", "values": [
      {"measurement": "IC50", "value": "1000 to 100000", "unit": "nM"}
    ]},
    {"compound": "Cc1ccc2cccnc2c1S(=O)(=O)Nc1ccc(N(C)C)cc1C#Cc1ccc(C(=O)O)nc1", "note": "[Compound 248, 5-{2-[5-(dimethylamino)-2-(7-methylquinoline-8-sulfonamido)phenyl]ethynyl}pyridine-2-carboxylic acid]", "values": [
      {"measurement": "IC50", "value": "100 to 1000", "unit": "nM"}
    ]},
    {"compound": "Cc1ccc2cccnc2c1S(=O)(=O)Nc1cc(Br)ccc1C#Cc1ccc(C(=O)O)nc1", "note": "[Compound 186, 5-{2-[4-bromo-2-(7-methylquinoline-8-sulfonamido)phenyl]ethynyl}pyridine-2-carboxylic acid]", "values": [
      {"measurement": "IC50", "value": "100 to 1000", "unit": "nM"}
    ]},
    {"compound": "COc1ccccc1-c1cccc(CN(C=O)c2ccccc2C#Cc2ccc(C(=O)O)nc2)c1", "note": "[Compound 179, 5-(2-{2-[N-({2′-methoxy-[1,1′-biphenyl]-3-yl}methyl)formamido]phenyl}ethynyl) pyridine-2-carboxylic acid]", "values": [
      {"measurement": "IC50", "value": "100 to 1000", "unit": "nM"}
    ]},
    {"compound": "Cc1ccc2nsnc2c1S(=O)(=O)Nc1ccccc1C#Cc1ccc(C(=O)O)nc1", "note": "[Compound 290, 5-{2-[2-(5-methyl-2,1,3-benzothia-diazole-4-sulfonamido)phenyl]-ethynyl}pyridine-2-carboxylic acid]", "values": [
      {"measurement": "IC50", "value": "1000 to 100000", "unit": "nM"}
    ]},
    {"compound": "O=C(O)c1ccc(C#Cc2ccccc2NS(=O)(=O)c2cccc3ccccc23)c2ccccc12", "note": "[Compound 84, 4-{2-[2-(naphthalene-1-sulfonamido)phenyl]ethynyl}-naphthalene-1-carboxylic acid]", "values": [
      {"measurement": "IC50", "value": "1000 to 100000", "unit": "nM"}
    ]},
    {"compound": "Cc1ccc2cccnc2c1S(=O)(=O)Nc1ccccc1C#Cc1ccc(C(=O)OCC2COC(C)(C)O2)nc1", "note": "(stereo not shown) [Compound 404, (2,2-dimethyl-1,3-dioxolan-4-yl)methyl 5-{2-[2-(7-methylquinoline-8-sulfonamido)phenyl]ethynyl}pyridine-2-carboxylate]", "values": [
      {"measurement": "IC50", "value": "100 to 1000", "unit": "nM"}
    ]},
    {"compound": "O=C(O)c1ccc(C#Cc2ccccc2NS(=O)(=O)c2cccc3c(Cl)cc(Cl)nc23)cn1", "note": "[Compound 314, 5-{2-[2-(2,4-dichloroquinoline-8-sulfonamido)phenyl]ethynyl}pyridine-2-carboxylic acid]", "values": [
      {"measurement": "IC50", "value": "100 to 1000", "unit": "nM"}
    ]}
  ]
}
